The nature of series [1]: Lipophilicity, log D of the compound in octanol at pH 7.4. Format: physicochemical.
For series [2], the system named is human transporter (not named). In words: Apparent permeability of the compound in MDCK cells expressing human transporter […]. Format: ADME, cell-based, Canis lupus familiaris. To be noted: dog.
A short description of series [3]: Ratio of total drug uptake in brain to blood in Han Wistar rat after 1 hr. Format: ADME, tissue-based. The conditions noted are these: brain and blood, read-out: BBR.

SMILES strings stand for the structures.

Regarding `N#Cc1cnc2c(C(=O)N[C@H]3C4CC5CC3C[C@](O)(C5)C4)cnn2c1`, in series [1], the logD came to 0.6.

With `Cc1cc(C(F)(F)F)n2ncc(C(=O)N[C@H]3C4CC5CC3C[C@](O)(C5)C4)c2n1`, in series [1], the logD was found to be 2.3.

In turn, `O=C(N[C@H]1C2CC3CC1C[C@](O)(C3)C2)c1cnn2c(C(F)F)cc(C3CC3)nc12` yielded a logD in series [1] of 2.8.

In turn, `Cc1cc(C)n2ncc(C(=O)N[C@H]3C4CC5CC3C[C@](C#N)(C5)C4)c2n1` gave a logD in series [1] of 2.9.

Regarding `CO[C@]12CC3CC(C1)[C@@H](NC(=O)c1cnn4cc(C)cnc14)C(C3)C2`, in series [2], the Papp stood at 49 ×10⁻⁶ cm/s. The same compound came in with a logD in series [1] of 2.6.

For the compound `O=C(N[C@H]1C2CC3CC1C[C@](O)(C3)C2)c1cnn2cccnc12`, the logD in series [1] is 1.4.

The compound `O=C(N[C@H]1C2CC3CC1C[C@](O)(C3)C2)c1cnc2cccnn12` showed a logD in series [1] of 1.2.

In series [1], `O=C(NC1C2CC3CC(C2)CC1C3)c1cnn2cccnc12` (stereo not given) came in with a logD of 3.5.

Turning to `COc1cnc2c(C(=O)N[C@H]3C4CC5CC3C[C@](O)(C5)C4)cnn2c1`, in series [1], the pH-dependent lipophilicity (logD) worked out at 1.8.

Turning to `Cc1ccnc2c(C(=O)N[C@H]3C4CC5CC3C[C@](O)(C5)C4)cnn12`, the Kp at 1 h in series [3] came out at 0.3. In addition, the logD in series [1] is 2.

As for `O=C(N[C@H]1C2CC3CC1C[C@](O)(C3)C2)c1cnn2cc(Cl)cnc12`, the Kp at 1 h in series [3] turned out to be 0.3. Besides, the Papp in series [2] stood at 44 ×10⁻⁶ cm/s. For the same compound, in series [1], the logD was 1.8.

`COCc1cc(C)n2ncc(C(=O)N[C@H]3C4CC5CC3C[C@](O)(C5)C4)c2n1` returned a logD in series [1] of 1.8.

On to `Cc1cnc2c(C(=O)N[C@H]3C4CC5CC3C[C@](C#N)(C5)C4)cnn2c1`, for which the Kp at 1 h in series [3] came out at 1.6. In series [2], the Papp is 46 ×10⁻⁶ cm/s. The compound also came in with a logD in series [1] of 2.3.

Consider `N#C[C@]12CC3CC(C1)[C@@H](NC(=O)c1cnn4cc(Cl)cnc14)C(C3)C2`, for which the Kp at 1 h in series [3] is 0.6. In addition, the Papp in series [2] came out at 41 ×10⁻⁶ cm/s. The same compound gave a logD in series [1] of 2.5.

For the compound `Cc1ccn2ncc(C(=O)N[C@H]3C4CC5CC3C[C@](O)(C5)C4)c2n1`, the logD in series [1] came out at 1.9.

Take `O=C(N[C@H]1C2CC3CC1C[C@](O)(C3)C2)c1cnn2c(C(F)(F)F)ccnc12`: the logD in series [1] was 2.

Regarding `Cc1cc(C(F)F)n2ncc(C(=O)N[C@H]3C4CC5CC3C[C@](O)(C5)C4)c2n1`, in series [1], the logD worked out at 2.2.

`COCc1cc(C)nc2c(C(=O)N[C@H]3C4CC5CC3C[C@](O)(C5)C4)cnn12`: in series [1], the logD worked out at 2.1.

Turning to `COCc1cc(C)n2ncc(C(=O)N[C@H]3C4CC5CC3C[C@](C#N)(C5)C4)c2n1`, the logD in series [1] came to 2.4.

For `Cc1cnc2c(C(=O)N[C@H]3C4CC5CC3C[C@](O)(C5)C4)cnn2c1`, in series [3], the Kp at 1 h was 0.3. For the same compound, the Papp in series [2] turned out to be 29 ×10⁻⁶ cm/s. Moreover, in series [1], the logD turned out to be 1.7.

With `Cc1ccnc2c(C(=O)N[C@H]3C4CC5CC3C[C@](C#N)(C5)C4)cnn12`, the logD in series [1] stood at 2.4.

`Cc1cc(C)n2ncc(C(=O)N[C@H]3C4CC5CC3C[C@](O)(C5)C4)c2n1` showed a logD in series [1] of 2.

On to `O=C(N[C@H]1C2CC3CC1C[C@](O)(C3)C2)c1cnn2ccccc12`, for which the logD in series [1] came to 1.5.

In series [1], `N#C[C@]12CC3CC(C1)[C@@H](NC(=O)c1cnn4cc(CCO)cnc14)C(C3)C2` showed a logD of 1.6.

Compound `COCc1cc(C)nc2c(C(=O)N[C@H]3C4CC5CC3C[C@](C#N)(C5)C4)cnn12` yielded a logD in series [1] of 2.7.
